Measurements reported in ChEMBL document CHEMBL6182864, “Design, synthesis and biological evaluation of 3-amino-6-(2-hydroxyphenyl)pyridazin-4-aryl derivatives as SMARCA2/4 degraders” (Eur J Med Chem, 2025).
The source made the active and inactive calls. No cut-off for these calls is given here.

Columns and labels:
MV4-11 [1] = test: Antiproliferative activity against human MV4-11 cells assessed as reduction in cell viability at 100 nM by MTT assay; type: functional, cell-based; conditions: time 3-7 day
[2] = Down regulation of SMARCA4 level in human MV4-11 cells at 100 nM measured after 6 hrs by mass spectrometric proteomic analysis relative to control; type: functional
[3] = Down regulation of PBRM1 level in human MV4-11 cells at 100 nM measured after 6 hrs by mass spectrometric proteomic analysis relative to control; type: functional
MV4-11 [4] = test: Effect on SMARCA2 mRNA expression in human MV4-11 cells at 1000 nM measured after 24 hrs by RT-qPCR analysis; type: functional, cell-based
MV4-11 [5] = test: Effect on SMARCA4 mRNA expression in human MV4-11 cells at 1000 nM measured after 24 hrs by RT-qPCR analysis; type: functional, cell-based
MOLM-13 [6] = test: Cell cycle arrest in human MOLM-13 cells assessed as increase in accumulation of cells at G0/G1 phase measured after 48 hrs by propidium iodide staining based flow cytometry; type: functional; conditions: dose 100-1000 nM
MOLM-13 [7] = test: Induction of apoptosis in human MOLM-13 cells assessed as early apoptotic cells at 100 nM measured after 72 hrs by Annexin-V-FITC/propidium iodide staining based flow cytometry (reference value: 5.57%); type: functional
MOLM-13 [8] = test: Induction of apoptosis in human MOLM-13 cells assessed as upregulation of PARP expression measured after 72 hrs by Western blot analysis; type: functional, cell-based; conditions: dose 100-1000 nM
MOLM-13 [9] = test: Induction of apoptosis in human MOLM-13 cells assessed as upregulation of cleaved caspase-3 expression measured after 72 hrs by Western blot analysis; type: functional, cell-based; conditions: dose 100-1000 nM
MV4-11 [10] = test: Down regulation of MYC protein expression in human MV4-11 cells at 11.1 to 1000 nM measured after 24 hrs by Western blot analysis; type: functional, cell-based; conditions: dose 11.1-1000 nM
MV4-11 [11] = test: Down regulation of CDC25A mRNA expression in human MV4-11 cells at 11.1 to 33.3 nM measured after 24 hrs by RT-qPCR analysis; type: functional, cell-based; conditions: dose 11.1-33.3 nM
MV4-11 [12] = test: Down regulation of […] mRNA expression in human MV4-11 cells at 100 to 1000 nM measured after 24 hrs by RT-qPCR analysis; type: functional, cell-based; conditions: dose 100-1000 nM
MV4-11 [13] = test: Down regulation of CD44 mRNA expression in human MV4-11 cells at 11.1 to 1000 nM measured after 24 hrs by RT-qPCR analysis; type: functional, cell-based; conditions: dose 11.1-1000 nM
MV4-11 [14] = test: Down regulation of BCL-2 mRNA expression in human MV4-11 cells at 11.1 to 1000 nM measured after 24 hrs by RT-qPCR analysis; type: functional, cell-based; conditions: dose 11.1-1000 nM
[15] = Tmax in SPF Sprague-Dawley rat at 1 mg/kg, iv by LC-MS/MS analysis; type: ADME, organism-based; conditions: in vivo
[16] = MRT (0 to t) in SPF Sprague-Dawley rat at 1 mg/kg, iv by LC-MS/MS analysis; type: ADME, organism-based; conditions: in vivo
[17] = Cmax in SPF Sprague-Dawley rat at 10 mg/kg, po by LC-MS/MS analysis; type: ADME, organism-based; conditions: in vivo
[18] = Half life in SPF Sprague-Dawley rat at 10 mg/kg, po by LC-MS/MS analysis; type: ADME, organism-based; conditions: in vivo
[19] = Oral bioavailability in SPF Sprague-Dawley rat at 10 mg/kg by LC-MS/MS analysis; type: ADME, organism-based; conditions: in vivo
MV4-11 [20] = test: Induction of apoptosis in human MV4-11 cells assessed as early apoptotic cells at 300 nM measured after 72 hrs by Annexin-V-FITC/propidium iodide staining based flow cytometry (reference value: 9.32%); type: functional
MOLM-13 [21] = test: Induction of apoptosis in human MOLM-13 cells assessed as early apoptotic cells at 300 nM measured after 72 hrs by Annexin-V-FITC/propidium iodide staining based flow cytometry (reference value: 5.57%); type: functional
MV4-11 [22] = test: Induction of apoptosis in human MV4-11 cells assessed as late apoptotic cells at 1000 nM measured after 72 hrs by Annexin-V-FITC/propidium iodide staining based flow cytometry (reference value: 1.09%); type: functional
MOLM-13 [23] = test: Induction of apoptosis in human MOLM-13 cells assessed as viable cells at 1000 nM measured after 72 hrs by Annexin-V-FITC/propidium iodide staining based flow cytometry (reference value: 90.28%); type: functional; conditions: read-out: Activity
MOLM-13 [24] = test: Induction of apoptosis in human MOLM-13 cells assessed as early apoptotic cells at 1000 nM measured after 72 hrs by Annexin-V-FITC/propidium iodide staining based flow cytometry (reference value: 5.57%); type: functional
MOLM-13 [25] = test: Induction of apoptosis in human MOLM-13 cells assessed as late apoptotic cells at 1000 nM measured after 72 hrs by Annexin-V-FITC/propidium iodide staining based flow cytometry (reference value: 3.87%); type: functional
MOLM-13 [26] = test: Induction of apoptosis in human MOLM-13 cells assessed as necrotic cells at 1000 nM measured after 72 hrs by Annexin-V-FITC/propidium iodide staining based flow cytometry (reference value: 0.28%); type: functional
MOLM-13 [27] = test: cells; conditions: Homo sapiens, MOLM-13, 72 h
MDA-MB-231 = test: cells; conditions: Homo sapiens, MDA-MB-231, 72 h
A2780 = test: cells; conditions: Homo sapiens, A2780, 72 h
HCT-116 = test: cells; conditions: Homo sapiens, HCT-116, 72 h

Tmax [15]: 1.98 min | MRT last [16]: 42 min | Cmax [17]: 6.41 ng/mL | half-life [18]: 126 min | F [19]: 0.62% | IC50 (MOLM-13 [27]): 0.023 µM | IC50 (MDA-MB-231): 24.3 µM | IC50 (A2780): 1.79 µM | IC50 (HCT-116): > 30 µM
Structure (SMILES): Cc1ncsc1-c1ccc([C@H](C)NC(=O)[C@@H]2C[C@@H](O)CN2C(=O)[C@@H](NC(=O)C2(c3ccc(-c4cc(-c5ccccc5O)nnc4N)cc3)CC2)C(C)(C)C)cc1
Activity (MV4-11 [1]): Time-dependent-effect; Complete Reduction Was Achieved On Day 7 | Activity [2]: >=50% | Activity [3]: >=50% | Activity (MV4-11 [4]): Active; Little Effect Mrna Level Observed | Activity (MV4-11 [5]): Active; Little Effect Mrna Level Observed | Activity (MOLM-13 [6]): Dose-dependent-effect | Activity (MOLM-13 [7]): 38.84% | Activity (MOLM-13 [8]): Dose-dependent-effect | Activity (MOLM-13 [9]): Dose-dependent-effect | Activity (MV4-11 [10]): Active | Activity (MV4-11 [11]): inactive | Activity (MV4-11 [12]): Active | Activity (MV4-11 [13]): Active | Activity (MV4-11 [14]): Active | Activity (MV4-11 [20]): 54.11% | Activity (MOLM-13 [21]): 58.21% | Activity (MV4-11 [22]): 24.35% | viability at 1 µM (MOLM-13 [23]): 25.7% | Activity (MOLM-13 [24]): 57.3% | Activity (MOLM-13 [25]): 16.77% | Activity (MOLM-13 [26]): 0.24%
